Laboratory results published in patent publication US20250092064A1, “BENZOTRIAZOLE COMPOUND” (DAIICHI SANKYO COMPANY, LIMITED, priority 2022, published 2025).

How the values were obtained:
[1] = Measurement test of plasma drug concentration after oral administration in rats; assay type: in vivo; conditions: male SD rats, 10 mg/2 mL/kg in 0.5% methylcellulose; for AUC(0-t): rat, plasma, 10 mg/kg, read-out: AUC0-24
Experimental: 10 mg/2 mL/kg of the test compound suspended in 0.5% methylcellulose solution were force-fed to Male SD rats (7 weeks old, Japan SLC). Blood was collected from the jugular vein using a syringe with heparin at 0.5, 1, 2, 4, 6, and 24 hr after administration. After blood collection, to 20 μL of centrifuged plasma was added an equal volume of acetonitrile followed by 200 μL of internal standard (IS) solution. After agitation, all the supernatant after centrifugation was filtered, and the collected filtrate was used as the assay sample. Equal volumes of the test compound solution prepared in acetonitrile were added to blank plasma, and the samples processed in the same manner as above were used as samples for the calibration curve. The prepared samples were measured using LC/MS/MS, and the area under the blood concentration-time curve (AUC) was calculated from the compound concentration in plasma.

[2] = molecular target: binding between Nrf2 and Keap1 (Homo sapiens (Human), UniProt Q14145); assay: FP assay (in vitro): inhibition of Nrf2-Keap1 binding by fluorescence polarization; conditions: GST-fused human Keap1 (325-642) 20 nM, FITC-labeled Nrf2 peptide 10 nM, 2 hr at room temperature
[3] = tested on: NQO1 activity in Hepa1c1c7 cells; assay: NAD(P)H: quinone oxidoreductase-1 (NQO1) enzyme induction assay (in vitro); assay type: cell-based, mouse; conditions: Mus musculus, Hepa-1c1c7, NQO1 activity with 400 nM test compound as a ratio from the base without compound, about 48 hr
In short: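 Mouse Hepa1c1c7 hepatoma cells treated 48 hr with 400 nM compound (final). NQO1 activity in lysates read by absorbance at 610 nm; value is background-subtracted activity ratio versus untreated cells.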

Chain of binding between Nrf2 and Keap1 (Q14145 325-624 limits assumed): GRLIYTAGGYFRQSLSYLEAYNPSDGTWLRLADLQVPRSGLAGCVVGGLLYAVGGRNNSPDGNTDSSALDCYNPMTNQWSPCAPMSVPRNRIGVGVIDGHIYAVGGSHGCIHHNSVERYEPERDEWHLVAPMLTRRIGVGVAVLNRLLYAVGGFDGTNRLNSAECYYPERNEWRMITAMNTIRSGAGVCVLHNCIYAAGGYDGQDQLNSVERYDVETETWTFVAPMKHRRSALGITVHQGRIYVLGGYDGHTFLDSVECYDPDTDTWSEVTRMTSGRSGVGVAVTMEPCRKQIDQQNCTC

maximam plasma concentration [1] | AUC(0-t) [1] | IC50 [2] | SMILES | fold induction at 0.4 µM [3]
– | – | ≤ 10 nM | CC[C@@H]1CN(Cc2cc([C@H](CC(=O)O)c3cc(C4CC4)c4c(nnn4C)c3C)cc3c2CCC3)[C@@H](C)c2ncccc2O1 [Example 106, (3S)-3-(7-Cyclopropyl-1,4-dimethyl-1H-benzotriazol-5-yl)-3-(7-{[(2R,5S)-2-ethyl-5-methyl-2,3-dihydropyrido[2,3-f][1,4]oxazepin-4(5H)-yl]methyl}-2,3-dihydro-1H-inden-5-yl)propanoic acid] | > 5
– | – | 10 to 30 nM | CC[C@@H]1CN(Cc2cc(C(CC(=O)O)c3cc(C4CC4)c4c(nnn4C)c3C)cc3c2OCC3)[C@@H](C)c2ncccc2O1 (stereo partly drawn) [Example 107, 3-(7-Cyclopropyl-1,4-dimethyl-1H-benzotriazol-5-yl)-3-(7-{[(2R,5S)-2-ethyl-5-methyl-2,3-dihydropyrido[2,3-f][1,4]oxazepin-4(5H)-yl]methyl}-2,3-dihydro-1-benzofuran-5-yl)propanoic acid] | > 5
– | – | 30 to 100 nM | CC[C@@H]1CN(Cc2cc([C@H](CC(=O)O)c3cc(OC(F)F)c4c(nnn4C)c3C)cc3ccsc23)S(=O)(=O)c2cc(Cl)cnc2O1 [Example 108, (3S)-3-(7-{[(4R)-8-Chloro-4-ethyl-1,1-dioxido-3,4-dihydro-2H-pyrido[2,3-b][1,4,5]oxathiazepin-2-yl]methyl}-1-benzothiophen-5-yl)-3-[7-(difluoromethoxy)-1,4-dimethyl-1H-benzotriazol-5-yl]propanoic acid] | > 5
– | – | 30 to 100 nM | CC[C@@H]1CN(Cc2cc(C(CC(=O)O)c3cc(C4CC4)c4c(nnn4C)c3C)cc3ccoc23)[C@@H](C)c2ncccc2O1 (stereo partly drawn) [Example 109, 3-(7-Cyclopropyl-1,4-dimethyl-1H-benzotriazol-5-yl)-3-(7-{[(2R,5S)-2-ethyl-5-methyl-2,3-dihydropyrido[2,3-f][1,4]oxazepin-4(5H)-yl]methyl}-1-benzofuran-5-yl)propanoic acid] | > 5
– | – | 30 to 100 nM | CC[C@@H]1CN(Cc2cc(C(CC(=O)O)c3cc(C4CC4)c4c(nnn4C)c3C)cc3ccoc23)S(=O)(=O)c2cc(Cl)cnc2O1 (stereo partly drawn) [Example 110, 3-(7-{[(4R)-8-Chloro-4-ethyl-1,1-dioxido-3,4-dihydro-2H-pyrido[2,3-b][1,4,5]oxathiazepin-2-yl]methyl}-1-benzofuran-5-yl)-3-(7-cyclopropyl-1,4-dimethyl-1H-benzotriazol-5-yl)propanoic acid] | > 5
– | – | ≤ 10 nM | CCOc1ccc2c(n1)O[C@H](CC)CN(Cc1cc([C@H](CC(=O)O)c3ccc4c(nnn4C)c3C)cc3ccsc13)S2(=O)=O [Example 111, (3S)-3-(1,4-Dimethyl-1H-benzotriazol-5-yl)-3-(7-{[(4R)-7-ethoxy-4-ethyl-1,1-dioxido-3,4-dihydro-2H-pyrido[2,3-b][1,4,5]oxathiazepin-2-yl]methyl}-1-benzothiophen-5-yl)propanoic acid] | 3 to 5
– | – | ≤ 10 nM | CCOc1ccc2c(n1)O[C@H](CC)CN(Cc1cc([C@@H](CC(=O)O)c3ccc4c(nnn4C)c3C)cc3ccsc13)S2(=O)=O [Example 112, (3R)-3-(1,4-Dimethyl-1H-benzotriazol-5-yl)-3-(7-{[(4R)-7-ethoxy-4-ethyl-1,1-dioxido-3,4-dihydro-2H-pyrido[2,3-b][1,4,5]oxathiazepin-2-yl]methyl}-1-benzothiophen-5-yl)propanoic acid] | 3 to 5

Second part, the molecule before the results:

SMILES | maximam plasma concentration [1] | AUC(0-t) [1] | IC50 [2] | fold induction at 0.4 µM [3]
CC[C@@H]1CN(Cc2cc([C@H](CC(=O)O)c3ccc4c(nnn4C)c3C)cc3c2CCC3)S(=O)(=O)c2cc(Cl)cnc2O1 [Example 4, (3S)-3-(7-{[(4R)-8-Chloro-4-ethyl-1,1-dioxido-3,4-dihydro-2H-pyrido[2,3-b][1,4,5]oxathiazepin-2-yl]methyl}-2,3-dihydro-1H-inden-5-yl)-3-(1,4-dimethyl-1H-benzotriazol-5-yl)propanoic acid] | 0.029 µM | 0.05 µM·h | ≤ 10 nM | > 5
CC[C@@H]1CN(Cc2cc([C@@H](CC(=O)O)c3ccc4c(nnn4C)c3C)cc3c2CCC3)S(=O)(=O)c2cc(Cl)cnc2O1 [Example 5, (3R)-3-(7-{[(4R)-8-Chloro-4-ethyl-1,1-dioxido-3,4-dihydro-2H-pyrido[2,3-b][1,4,5]oxathiazepin-2-yl]methyl}-2,3-dihydro-1H-inden-5-yl)-3-(1,4-dimethyl-1H-benzotriazol-5-yl)propanoic acid] | 0.006 µM | 0.035 µM·h | 10 to 30 nM | > 5
CC[C@@H]1CN(Cc2cc([C@H](CC(=O)O)c3ccc4c(nnn4C)c3C)cc3ccsc23)S(=O)(=O)c2cc(Cl)cnc2O1 [Example 7, (3S)-3-(7-{[(4R)-8-Chloro-4-ethyl-1,1-dioxido-3,4-dihydro-2H-pyrido[2,3-b][1,4,5]oxathiazepin-2-yl]methyl}-1-benzothiophen-5-yl)-3-(1,4-dimethyl-1H-benzotriazol-5-yl)propanoic acid] | 0.009 µM | 0.03 µM·h | ≤ 10 nM | > 5
CC[C@@H]1CN(Cc2cc([C@@H](CC(=O)O)c3ccc4c(nnn4C)c3C)cc3ccsc23)S(=O)(=O)c2cc(Cl)cnc2O1 [Example 8, (3R)-3-(7-{[(4R)-8-Chloro-4-ethyl-1,1-dioxido-3,4-dihydro-2H-pyrido[2,3-b][1,4,5]oxathiazepin-2-yl]methyl}-1-benzothiophen-5-yl)-3-(1,4-dimethyl-1H-benzotriazol-5-yl)propanoic acid] | 0.005 µM | 0.023 µM·h | ≤ 10 nM | > 5
CC[C@@H]1CN(Cc2cc([C@H](CC(=O)O)c3cc(OC(F)(F)F)c4c(nnn4C)c3C)cc3c2CCC3)S(=O)(=O)c2cc(Cl)cnc2O1 [Example 100, (3S)-3-(7-{[(4R)-8-Chloro-4-ethyl-1,1-dioxido-3,4-dihydro-2H-pyrido[2,3-b][1,4,5]oxathiazepin-2-yl]methyl}-2,3-dihydro-1H-inden-5-yl)-3-[1,4-dimethyl-7-(trifluoromethoxy)-1H-benzotriazol-5-yl]propanoic acid] | – | – | ≤ 10 nM | > 5
CC[C@@H]1CN(Cc2cc([C@@H](CC(=O)O)c3cc(OC(F)(F)F)c4c(nnn4C)c3C)cc3c2CCC3)S(=O)(=O)c2cc(Cl)cnc2O1 [Example 101, (3R)-3-(7-{[(4R)-8-Chloro-4-ethyl-1,1-dioxido-3,4-dihydro-2H-pyrido[2,3-b][1,4,5]oxathiazepin-2-yl]methyl}-2,3-dihydro-1H-inden-5-yl)-3-[1,4-dimethyl-7-(trifluoromethoxy)-1H-benzotriazol-5-yl]propanoic acid] | – | – | ≤ 10 nM | > 5
CC[C@@H]1CN(Cc2cc(C(CC(=O)O)c3cc(C4CC4)c4c(nnn4C)c3C)cc3c2OCC3)S(=O)(=O)c2cc(Cl)cnc2O1 (stereo partly drawn) [Example 102, 3-(7-{[(4R)-8-Chloro-4-ethyl-1,1-dioxido-3,4-dihydro-2H-pyrido[2,3-b][1,4,5]oxathiazepin-2-yl]methyl}-2,3-dihydro-1-benzofuran-5-yl)-3-(7-cyclopropyl-1,4-dimethyl-1H-benzotriazol-5-yl)propanoic acid] | – | – | ≤ 10 nM | > 5
CC[C@@H]1CN(Cc2cc(C(CC(=O)O)c3cc(C4CC4)c4c(nnn4C)c3C)cc3[nH]ccc23)S(=O)(=O)c2cc(Cl)cnc2O1 (stereo partly drawn) [Example 103, 3-(4-{[(4R)-8-Chloro-4-ethyl-1,1-dioxido-3,4-dihydro-2H-pyrido[2,3-b][1,4,5]oxathiazepin-2-yl]methyl}-1H-indol-6-yl)-3-(7-cyclopropyl-1,4-dimethyl-1H-benzotriazol-5-yl)propanoic acid] | – | – | ≤ 10 nM | > 5
CC[C@@H]1CN(Cc2cc(C(CC(=O)O)c3cc(C4CC4)c4c(nnn4C)c3C)cc3[nH]ccc23)[C@@H](C)c2ncccc2O1 (stereo partly drawn) [Example 104, 3-(7-Cyclopropyl-1,4-dimethyl-1H-benzotriazol-5-yl)-3-(4-{[(2R,5S)-2-ethyl-5-methyl-2,3-dihydropyrido[2,3-f][1,4]oxazepin-4(5H)-yl]methyl}-1H-indol-6-yl)propanoic acid] | – | – | 10 to 30 nM | > 5
CC[C@@H]1CN(Cc2cc([C@@H](CC(=O)O)c3cc(C4CC4)c4c(nnn4C)c3C)cc3c2CCC3)[C@@H](C)c2ncccc2O1 [Example 105, (3R)-3-(7-Cyclopropyl-1,4-dimethyl-1H-benzotriazol-5-yl)-3-(7-{[(2R,5S)-2-ethyl-5-methyl-2,3-dihydropyrido[2,3-f][1,4]oxazepin-4(5H)-yl]methyl}-2,3-dihydro-1H-inden-5-yl)propanoic acid] | – | – | 10 to 30 nM | > 5
